Measurements as given in patent US20260240846A1, “ZAK ALPHA KINASE (MAP3K20) INHIBITORS FOR USE IN THE TREATMENT OF ANEMIA” (UNIVERSIDAD DE MURCIA, priority 2023, published 2026).

How the values were obtained:
HSPCs from DBA patients = assay: Colony assay of PBMCs from DBA patients in methylcellulose medium; format: cell-based, human; conditions: 2 weeks, indicated concentrations (FIG. 13A)
Method: FIG. 13. […] PBMCs from DBA patients were incubated for 2 weeks in human methylcellulose complete medium at 37° C. in the presence or absence of the indicated concentrations of nilotinib, imatinib, dasatinib, bosutinib and ponatinib, and the number of erythroid (A) and myeloid (B) colonies counted using standard morphological criteria. Each dot represents one patient and the means±SEM for each group is also shown.

[1] = test system: RPS19-deficient CD34+ cells; assay: Human RPS19-edited model of DBA: erythroid differentiation with EPO; format: cell-based; conditions: EPO 13 days, 0.1 μM nilotinib (FIGS. 14A-14C)
Method: FIG. 14. Nilotinib promotes erythropoiesis in a human RPS19-edited model of DBA. RPS19 gene was edited in primary human CD34^+/CD133^+ cells with CRISPR-Cas9 technology and the cells were then differentiated with EPO for 13 days in the presence of absence of 0.1 μM nilotinib. (A) Representative flow cytometry dot plots of CD235-APC vs. CD71-FITC from control and RPS19-edited cells at 13 days of differentiation with EPO. (B) Cell surface expression of CD235A from control (mock) and RPS19-deficient cells treated with DMSO or nilotinib. (C) Percentage of mature erythrocytes (CD71^−/CD235A^+) vs. percentage of erythroid progenitors (CD71^+/CD235A^−) in RPS19-deficient cells treated with DMSO or 0.1 μM nilotinib. (D) CASP1 activity of control and RPS19-deficient cells treated with DMSO or 0.1 μM nilotinib. MFI, mean fluorescence intensity.

[2] = test system: bone marrow mononuclear cells of a DBA patient with a RPS19 mutation; assay: Colony assay of BMMCs from a DBA patient in methylcellulose medium; format: cell-based, human; conditions: 2 weeks
Method: (§1) FIG. 6. NLRP1 is activated by phosphorylation of the linker domain after activation of ZAKα and pharmacological inhibition of this signaling pathway promotes erythropoiesis in DBA. (A-D) Number of neutrophils (A-C), and caspase-1 activity (D) in 2 dpf larvae obtained by injection of one-cell stage embryos with human NLRP1 (wild type-WT, S107A and S107D) and treated from 1 to 2 dpf by bath immersion with 1 μM nilotinib (B-D). Representative images of neutrophils (arrows) are also shown in C. (E, F) BMMCs from a DBA patient were incubated for 2 weeks in human methylcellulose complete medium at 37° C. in the presence or absence of the indicated concentrations of nilotinib, and colonies were counted using standard morphological criteria. Each dot represents one individual and the mean±SEM for each group is also shown. P values were calculated by one-way ANOVA and Tukey's multiple range test. n.s., non-significant; *P<0.05; **P<0.01; ***P<0.001; ****P<0.0001.
Bone marrow aspirates were collected at the Hospital General Universitario José Maria Morales Meseguer under CEIC approval number EST: 12/16. […] BMMCs were incubated in methylcellulose medium at 37° C. in a 5% CO2-humidified atmosphere in the presence of DMSO or nilotinib (0.01 and 0.1 μM), and colonies were counted at day 9 and 14 using standard morphological criteria.

caspase-1 = assay: Caspase-1 activity assay in zebrafish larvae (Z-YVAD-AFC); format: in vivo, Zebrafish (Danio rerio H.)
Method: as §1, with “****P<0.0001. […]” for “****P<0.0001.”
Caspase-1 activity was determined with the fluorometric substrate Z-YVAD 7-Amido-4-trifluoromethylcoumarin (Z-YVAD-AFC, caspase-1 substrate VI, Calbiochem). […] After incubation, the fluorescence of AFC released from the Z-YVAD-AFC substrate was measured with a FLUOstart spectrofluorometer (BGM, LabTechnologies) at an excitation wavelength of 405 nm and an emission wavelength of 492 nm.

## Cc1cn(-c2cc(NC(=O)c3ccc(C)c(Nc4nccc(-c5cccnc5)n4)c3)cc(C(F)(F)F)c2)cn1 [nilotinib]
HSPCs from DBA patients
  defective erythropoiesis of HSPCs from DBA patients (erythroid colonies): alleviated defective erythropoiesis
[1]
  defective erythropoiesis of RPS19-deficient CD34+ cells: rescued defective erythropoiesis
[2]; nilotinib 0.01 and 0.1 μM (FIG. 6E)
  number of erythroid colonies: strongly increased
[2]; nilotinib 0.01 and 0.1 μM (FIG. 6F)
  number of myeloid colonies: not affected
caspase-1; larvae expressing human NLRP1 S107D, 1 μM nilotinib 1 to 2 dpf
  caspase-1 activation induced by NLRP1 with phosphomimetic S107D mutation: failed to reverse
caspase-1; larvae expressing human wild type NLRP1, 1 μM nilotinib 1 to 2 dpf
  caspase-1 activation induced by wild type NLRP1: able to abrogate
